Measurements as given in patent publication US12550899B2, “Topramezone derivative and use thereof” (priority 2023, dated 2026).

Columns and labels:
Assay type in all cases: in vivo
[1] = tested on: test weeds (grassy weeds, sedge, broadleaf weeds); assay: Laboratory bioactivity efficacy test 2.1, symptoms on the test weeds; conditions: test 2.1 weeds
Text: (§1) Refer to the “Pesticides guidelines for laboratory bioactivity tests Part 4: Foliar spray application test for herbicide activity, NY/T 1155.4-2006”.
(§2) • grassy weeds: Setaria viridis, Chloris virgata; • sedge: Cyperus rotundus; • Broadleaf weeds: Amaranthus retroflexus, Chenopodium album, Acalypha australis, Commelina communis, Convolvulus arvensis, Cirsium setosum, and Eclipta prostrata. 2.1.3 Test Conditions
(§3) The soil used for the test was a mixture of surface 20 cm loam and vermiculite, mixed in a volume ratio of 3:1 to form a culture soil. The test corn was cultured in a glass greenhouse with a temperature ranging from 25° C. to 35° C. and under natural light.
(§4) A measured quantity of weed seeds were sown in plastic pots with a diameter of 9 cm, and covered with 1-2 mm of soil. The ports were then placed in enamel trays filled with water, and watered by bottom irrigation. After sowing, the pots were transferred to the glass greenhouse for cultivation and growth.
(§5) Five dosages were set for Compound I, Compound II and the control herbicide Topramezone, which were 3.75, 7.5, 15, 30 and 60 grams of active ingredient per hectare respectively. In addition, a blank control was also prepared.
(§6) The required amount of the herbicide was accurately measured out, an appropriate amount of emulsifier and organic solvent were added to dissolve the herbicide, and then a certain amount of water was added therein until the herbicide was diluted to the required dosage by using the serial dilution method for standby.
(§7) The fresh weight of each treatment was surveyed 14 days after the application of the herbicide. The fresh weight control efficacy was calculated according to the following formula: fresh weight control efficacy (%)=(control fresh weight−treatment fresh weight)/control fresh weight×100.

Corn (Zhengdan 958) = assay: Corn safety laboratory test; conditions: Zhengdan 958; for Fresh Weight / Fresh Weight Control Efficacy: 15 days after application
Method: (§8) Three corn varieties: Zhengdan 958, white waxy corn, and sweet corn (Runhua sweet corn).
as §3
(§9) A measured quantity of corn seeds were sown in plastic pots with a diameter of 15 cm, and covered with 2-3 cm of soil. The ports were then placed in enamel trays filled with water, and watered by bottom irrigation. After sowing, the pots were transferred to the glass greenhouse for cultivation and growth.
(§10) In the corn safety test, dosages were set for the two Compounds (Compound I of the present invention and Compound II of the present invention) and the control herbicide Topramezone, which were 15, 30, 60, and 120 grams of active ingredient per hectare respectively. In addition, a blank control was also prepared.
as §6
(§11) Corn stems and leaves were uniformly sprayed at the 3-4-leaf stage.
(§12) The ASS-3 automatic control spraying system with a fan-shaped nozzle was used indoors for herbicide application. Depending on the nozzle pressure and flow rate, 50 mL of herbicide solution was applied to a spraying area of 1.1 m^2 (which was equivalent to the water consumption of 30 L per mu). The system's operating speed was calibrated. The plastic pots to be treated were arranged evenly on the spraying platform to ensure uniform treatment. The spray pressure was set to 0.35 MPa, and the flow rate of the fan-shaped nozzle was set to 800 mL/min. The spraying was carried out in sequence from the low dosage to the high dosage. Each treatment was repeated three times.
(§13) The herbicide was applied once. After spraying, the pots were air-dried for one day and then placed in the glass greenhouse. Regular watering was conducted to maintain moisture.
(§14) After application of the herbicide, whether there were any phytotoxic symptoms in the corn for each treatment was recorded. If yes, the phytotoxicity symptoms and grade were recorded in detail. 15 days after application, the fresh weight of the corn in each treatment was measured and the fresh weight control efficacy was calculated to assess the safety of the herbicide on the corn.
(§15) The treatment results were calculated according to the following formula: fresh weight control efficacy (%)=(control fresh weight−treatment fresh weight)/control fresh weight×100.

Corn (Sweet Corn) = assay: Corn safety laboratory test; conditions: for Corn Growth Status / Fresh Weight / Fresh Weight Control Efficacy: Sweet Corn; for Fresh Weight / Fresh Weight Control Efficacy: 15 days after application
Method: as §8, §3, §9, §10, §6, §11, §12, §13, §14, §15

Corn (White Waxy Corn) = assay: Corn safety laboratory test; conditions: for Corn Growth Status / Fresh Weight / Fresh Weight Control Efficacy: White Waxy Corn; for Fresh Weight / Fresh Weight Control Efficacy: 15 days after application
Method: as §8, §3, §9, §10, §6, §11, §12, §13, §14, §15

[2] = tested on: grassy weeds and broadleaf weeds; assay: Laboratory bioactivity efficacy test 2.2, visual observation of weeds
Method: • grassy weeds: Digitaria sanguinalis, Eleusine indica, Echinochloa crusgalli; • Broadleaf weeds: Portulaca oleracea, Abutilon theophrasti medicus. 2.2.2 Test Conditions
The soil used for the test was a mixture of surface 20 cm loam and vermiculite, mixed in a volume ratio of 3:1 to form a culture soil. The test weeds were cultured in a glass greenhouse with a temperature ranging from 25° C. to 35° C. and under natural light.
Quantified seeds of Digitaria sanguinalis, Eleusine indica, Echinochloa crusgalli, Portulaca oleracea, and Abutilon theophrasti medicus were sown in plastic pots with a diameter of 9 cm, and covered with 1-2 mm of soil. The ports were then placed in enamel trays filled with water, and watered by bottom irrigation. After the water seeped to the soil surface, the pots were transferred to the glass greenhouse for standby.
as §5
The required amount of the herbicide was accurately measured out and directly added with water, which was diluted to the required dosage by using the serial dilution method for standby.
as §12, with “test was conducted on grassy weeds at the two-leaf and one-heart stage, Abutilon theophrasti medicus at the 2-true-leaf stage, and Portulaca oleracea at the 3-5-leaf stage, with the stems and leaves both sprayed uniformly. The ASS-4” for “ASS-3”, “two to four” for “three”
as §13
The damage symptoms of the weeds (such as growth inhibition, chlorosis, malformation, etc.) were carefully recorded at 3, 7, 10, and 20 days after herbicide application. A visual comparison of the herbicide effectiveness was made. At 20 days post-application, the fresh weight of the aboveground parts of the weeds from each treatment group was measured, and the fresh weight control efficacy was calculated.

Amaranthus retroflexus = assay: Laboratory bioactivity efficacy test 2.1 (foliar spray); conditions: fresh weight control efficacy 14 days after application
Text: as §1, §2, §3, §4, §5, §6, §7
(§16) A DPS statistical software was used to conduct regression analysis on the logarithmic values of the herbicide dosage and the probit values of the corn fresh weight control efficacy, and the correlation coefficient, GR50, GR90, and the 95% confidence interval were calculated.

Cyperus rotundus = assay: as above; conditions: fresh weight control efficacy 14 days after application
Text: as §1, §2, §3, §4, §5, §6, §7, §16

## Cc1c(C(=O)c2cnn(C)c2O)ccc(S(C)(=O)=O)c1C1=NOCC1 [Topramezone]
[1]
  Symptoms on the test weeds: clear pesticidal efficacy symptoms
Corn (Zhengdan 958); all dosages
  Growth of corn / phytotoxicity (in words): normal
Corn (Zhengdan 958); dosage 15 g a.i./ha
  Corn Growth Status: Good, Normal Growth
  Fresh Weight: 15.2 g
  Fresh Weight Control Efficacy: −0.5%
Corn (Zhengdan 958); dosage 30 g a.i./ha
  Corn Growth Status: Good, Normal Growth
  Fresh Weight: 14.9 g
  Fresh Weight Control Efficacy: 1.8%
Corn (Zhengdan 958); dosage 60 g a.i./ha
  Corn Growth Status: Good, Normal Growth
  Fresh Weight: 15.2 g
  Fresh Weight Control Efficacy: −0.5%
Corn (Zhengdan 958); dosage 120 g a.i./ha
  Corn Growth Status: Good, Normal Growth
  Fresh Weight: 15.6 g
  Fresh Weight Control Efficacy: −2.8%
Corn (Sweet Corn); dosage 15 g a.i./ha
  Corn Growth Status: Good, Normal Growth
  Fresh Weight: 7.6 g
  Fresh Weight Control Efficacy: −2.0%
Corn (Sweet Corn); dosage 30 g a.i./ha
  Corn Growth Status: Good, Normal Growth
  Fresh Weight: 7.4 g
  Fresh Weight Control Efficacy: −0.3%
Corn (Sweet Corn); dosage 60 g a.i./ha
  Corn Growth Status: Good, Normal Growth
  Fresh Weight: 7.4 g
  Fresh Weight Control Efficacy: −0.3%
Corn (Sweet Corn); dosage 120 g a.i./ha
  Corn Growth Status: Good, Normal Growth
  Fresh Weight: 7.3 g
  Fresh Weight Control Efficacy: 1.0%
Corn (Sweet Corn); sweet corn, all dosages
  Safety to corn (in words): safe
Corn (White Waxy Corn); dosage 15 g a.i./ha
  Corn Growth Status: Good, Normal Growth
  Fresh Weight: 9.7 g
  Fresh Weight Control Efficacy: −2.7%
Corn (White Waxy Corn); dosage 30 g a.i./ha
  Corn Growth Status: Good, Normal Growth
  Fresh Weight: 9.4 g
  Fresh Weight Control Efficacy: 0.3%
Corn (White Waxy Corn); dosage 60 g a.i./ha
  Corn Growth Status: Good, Normal Growth
  Fresh Weight: 9.5 g
  Fresh Weight Control Efficacy: −0.3%
Corn (White Waxy Corn); dosage 120 g a.i./ha
  Corn Growth Status: Good, Normal Growth
  Fresh Weight: 9.0 g
  Fresh Weight Control Efficacy: 4.5%
Corn (White Waxy Corn); white waxy corn, highest dosage, 120 grams of active ingredient per hectare
  Growth of corn / phytotoxicity (in words): normal, without causing any phytotoxicity
[2]; 3 to 7 days after application, grassy weeds and broadleaf weeds like Portulaca oleracea
  Visual observation of weeds: gradually became whitened and withered
[2]; 10 days after application
  Visual observation of weeds: excellent treatment effects
[2]; 20 days after application
  Visual observation of weeds: dried up and died
Amaranthus retroflexus
  GR50: 4.05 g a.i./ha
  GR90: 11.29 g a.i./ha
Cyperus rotundus
  GR50: 16.11 g a.i./ha
  GR90: 39.22 g a.i./ha
